We go through eight compounds from patent US20250289789A1, “REVERSIBLE LYSINE COVALENT MODIFIERS OF CDK2 AND USES THEREOF” (Terremoto Biosciences, Inc., priority 2023, published 2025).

pIC50: −log10 of the molar value.

Holding throughout (assay type): cell-based
The target in test [1] is T1, CDK1-NanoLuc fusion with CCNB1 in 293T or 293 cells (Homo sapiens, UniProt P06493).
T1 construct: host or cells: 293T (ATCC CRL-3216) or 293 (ATCC CRL-1573)
The test is described as follows: NanoBRET Target Engagement (TE) Intracellular Kinase Assay, CDK1/CCNB1. The note with it: NanoBRET TE intracellular kinase assay, 2-hour incubation, read-out: NanoBRET-CDK1/B1 IC50. As to the method:
Inhibitory effects of compounds were measured in NanoBRET TE Intracellular Kinase Assay. 293T (ATCC; CRL-3216) or 293 (ATCC; CRL-1573) cell lines were maintained in 90% DMEM and 10% fetal bovine serum at 37° C., 5% CO2, and 95% relative humidity. Cells were trypsinized and resuspended in assay media (99% Opti-MEM I Reduced Serum Medium, no phenol red, and 1% fetal bovine serum). Cells were co-transfected with 1 μg/mL of CDK-NanoLuc Fusion Vector (Promega; NV2701 for CDK1, NV2781 for CDK2, NV2811 for CDK4, NV2841 for CDK6) and 1 μg/mL of the corresponding Cyclin Expression Vector (Promega; NV2601 for CCNB1, NV2641 for CCNE1, NV2621 for CCND1, NV2631 for CCND3) using FuGENE HD Transfection Reagent (Promega; E2311). 40 uL/well of cells with transfection mixture were seeded in 384-well plates at 1.25×10^5 to 2×10^5 cells/mL and incubated for 24 hours at 37° C., 5% CO2, and 95% relative humidity. On the next day, 100 nL of 100 μM NanoBRET Tracer K-10 (Promega; N2640) and 40 nL of 1000× test compounds prepared in DMSO were added to the cells in each well of 384-well plates for a 2-hour incubation at 37° C., 5% CO2, and 95% relative humidity. 20 uL/well of 3× Intracellular TE Nano-Glo Substrate/Inhibitor (Promega; N2162) were added to 384-well plates and incubated for 3 minutes at room temperature. NanoBRET signals (donor emission wavelength at 450 nm, acceptor emission wavelength at 610 nm) were measured using Envision plate reader (PerkinElmer). NanoBRET ratio was calculated by: BRET Ratio=raw signal for acceptor/raw signal for donor. Dose response curve normalized to DMSO control was plotted using four-parameter logistic model for IC50 calculation.

Test [2] has as its target T2, CDK2-NanoLuc fusion with CCNE1 in 293T or 293 cells (Homo sapiens, UniProt P24941).
T2 construct: host or cells: 293T (ATCC CRL-3216) or 293 (ATCC CRL-1573)
The test is described as follows: NanoBRET Target Engagement (TE) Intracellular Kinase Assay, CDK2/CCNE1. The note with it: NanoBRET TE intracellular kinase assay, 2-hour incubation, read-out: NanoBRET-CDK2/E1 IC50. For orientation: In BRET a luciferase serves as donor, and the signal depends on an acceptor being close.

In test [3] the target is T3, CDK4-NanoLuc fusion with CCND1 in 293T or 293 cells (Homo sapiens, UniProt P11802).
T3 construct: host or cells: 293T (ATCC CRL-3216) or 293 (ATCC CRL-1573)
T3 sequence (P11802 whole entry, the tested form may be a part): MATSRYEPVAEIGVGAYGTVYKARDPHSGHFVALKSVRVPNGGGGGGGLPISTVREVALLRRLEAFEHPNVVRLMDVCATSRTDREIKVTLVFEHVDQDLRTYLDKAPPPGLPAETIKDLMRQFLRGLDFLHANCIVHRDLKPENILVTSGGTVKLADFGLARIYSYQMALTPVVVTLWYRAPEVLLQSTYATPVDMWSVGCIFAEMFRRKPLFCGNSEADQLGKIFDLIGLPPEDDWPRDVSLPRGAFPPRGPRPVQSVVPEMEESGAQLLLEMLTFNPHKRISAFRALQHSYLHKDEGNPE
T3 sequence (P24385 whole entry partner, the tested form may be a part): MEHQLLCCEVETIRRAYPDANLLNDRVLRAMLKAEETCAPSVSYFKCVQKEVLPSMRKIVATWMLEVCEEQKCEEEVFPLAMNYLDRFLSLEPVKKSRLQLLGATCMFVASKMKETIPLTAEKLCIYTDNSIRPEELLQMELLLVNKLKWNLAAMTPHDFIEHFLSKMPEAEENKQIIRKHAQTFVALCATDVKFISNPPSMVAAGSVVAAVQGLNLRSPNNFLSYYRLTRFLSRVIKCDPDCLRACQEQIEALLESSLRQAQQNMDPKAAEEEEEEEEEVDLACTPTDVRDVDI
The test is described as follows: NanoBRET Target Engagement (TE) Intracellular Kinase Assay, CDK4/CCND1. The note with it: NanoBRET TE intracellular kinase assay, 2-hour incubation, read-out: NanoBRET-CDK4/D1 IC50.

The test system of test [4] is Phospho-Rb Ser807/811 in OVCAR3 cells. The test is described as follows: OVCAR3 Phospho-Rb Ser807/811 HTRF assay. The note with it: Homo sapiens, OVCAR-3, 1 h, OVCAR3 cells, Phospho-Rb Ser807/811 HTRF, 1 hour incubation; read-out: pRb-OVCAR3 IC50. Here is the method: Cells were trypsinized and resuspended in 1 mM hydroxyurea (Sigma; H8627), 90% RPMI and 10% fetal bovine serum. […] Dose response curve normalized to DMSO control was plotted using four-parameter logistic model for IC50 calculation.
In general terms: TR-FRET usually uses a lanthanide donor and a delayed reading to cut background.

T1 sequence (P06493 whole entry, the tested form may be a part): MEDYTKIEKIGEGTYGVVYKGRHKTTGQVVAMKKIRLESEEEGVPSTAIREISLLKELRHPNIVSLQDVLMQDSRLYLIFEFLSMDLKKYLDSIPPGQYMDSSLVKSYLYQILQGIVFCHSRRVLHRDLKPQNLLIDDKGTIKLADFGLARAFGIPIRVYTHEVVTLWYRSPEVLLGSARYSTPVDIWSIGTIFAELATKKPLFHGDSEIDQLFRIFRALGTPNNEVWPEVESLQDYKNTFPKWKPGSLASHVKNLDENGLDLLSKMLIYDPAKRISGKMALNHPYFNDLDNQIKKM
T1 sequence (P14635 whole entry partner, the tested form may be a part): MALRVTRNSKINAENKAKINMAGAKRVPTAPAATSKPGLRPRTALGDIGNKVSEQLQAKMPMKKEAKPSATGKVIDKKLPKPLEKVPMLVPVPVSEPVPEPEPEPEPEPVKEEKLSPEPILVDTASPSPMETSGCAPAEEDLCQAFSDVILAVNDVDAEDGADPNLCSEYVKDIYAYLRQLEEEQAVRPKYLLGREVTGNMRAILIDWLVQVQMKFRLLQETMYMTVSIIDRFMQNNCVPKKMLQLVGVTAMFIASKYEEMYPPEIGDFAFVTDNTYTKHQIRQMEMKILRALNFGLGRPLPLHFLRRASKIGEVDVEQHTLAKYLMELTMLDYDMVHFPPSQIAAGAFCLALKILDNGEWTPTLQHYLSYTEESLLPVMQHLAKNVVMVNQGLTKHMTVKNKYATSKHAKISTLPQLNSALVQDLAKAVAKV

Regarding `CC(C)NC(=O)O[C@@H]1CC[C@H](c2cc(NC(=O)c3cc(C(=O)Nc4cccc(O)c4C=O)nn3C)n[nH]2)C1` [Compound 20, (1R,3S)-3-(5-{5-[(2-formyl-3-hydroxyphenyl)carbamoyl]-2-methylpyrazole-3-amido}-2H-pyrazol-3-yl)cyclopentyl N-isopropylcarbamate; trifluoroacetic acid], the pIC50 in test [1] was 6.83; in test [2], 7.98; in test [3], 5.92; in test [4], 6.04.

Take `CC(C)NC(=O)O[C@@H]1CC[C@H](c2cc(NC(=O)c3cc(C(=O)Nc4ccccc4C=O)nn3C)n[nH]2)C1` [Compound 21, (1R,3S)-3-(5-{5-[(2-formylphenyl)carbamoyl]-2-methylpyrazole-3-amido}-2H-pyrazol-3-yl)cyclopentyl N-isopropylcarbamate; trifluoroacetic acid]: the pIC50 is 6.54 in test [1], 8.26 in test [2], 5.41 in test [3] and 5.67 in test [4].

In the case of `CC(C)NC(=O)O[C@@H]1CC[C@H](c2cc(Nc3cc(COc4cccc(O)c4C=O)ccn3)n[nH]2)C1` [Compound 24, (1R,3S)-3-(3-((4-((2-formyl-3-hydroxyphenoxy)methyl)pyridin-2-yl)amino)-1H-pyrazol-5-yl)cyclopentyl isopropylcarbamate], the pIC50 in test [1] was 6.29; in test [2] it was 7.73; in test [3], 5.31; in test [4], 5.42.

Regarding `CC(C)NC(=O)O[C@@H]1CC[C@H](c2cc(Nc3cc(OCc4cccc(O)c4C=O)ccn3)n[nH]2)C1` [Compound 25, (1R,3S)-3-[5-({4-[(2-formyl-3-hydroxyphenyl)methoxy]pyridine-2-yl}amino)-2H-pyrazol-3-yl]cyclopentyl N-isopropylcarbamate], the pIC50 in test [1] is 6.52; in test [2], 8.00; in test [3], 5.92; in test [4] it was 5.88.

For the compound `CC(C)NC(=O)O[C@@H]1CC[C@H](c2cc(NC(=O)c3cc(COc4cccc(O)c4C=O)nn3C)n[nH]2)C1` [Compound 27, (1R,3S)-3-{5-[5-(2-formyl-3-hydroxyphenoxymethyl)-2-methylpyrazole-3-amido]-2H-pyrazol-3-yl}cyclopentyl N-isopropylcarbamate], the pIC50 in test [1] is 7.75; in test [2], 8.28; in test [3] it was 6.95; in test [4], 7.02.

Regarding `CC(C)NC(=O)O[C@@H]1CC[C@H](c2cc(NC(=O)c3cc(OCc4cccc(O)c4C=O)nn3C)n[nH]2)C1` [Compound 28, (1R,3S)-3-(3-(3-((2-formyl-3-hydroxybenzyl)oxy)-1-methyl-1H-pyrazole-5-carboxamido)-1H-pyrazol-5-yl)cyclopentyl isopropylcarbamate], the pIC50 in test [1] is 6.82; in test [2], 7.98; in test [3] it was 5.92; in test [4], 5.74.

`CC(C)NC(=O)O[C@@H]1CC[C@H](c2cc(NC(=O)c3cc(C#Cc4cccc(O)c4C=O)nn3C)n[nH]2)C1` [Compound 29, (1R,3S)-3-(5-{5-[2-(2-formyl-3-hydroxyphenyl)ethynyl]-2-methylpyrazole-3-amido}-2H-pyrazol-3-yl)cyclopentyl N-isopropylcarbamate]: the pIC50 is 6.31 in test [1], 7.73 in test [2], 5.81 in test [3] and 5.67 in test [4].

Regarding `CC(C)NC(=O)O[C@@H]1CC[C@H](c2cc(NC(=O)c3cc(CCc4cccc(O)c4C=O)nn3C)n[nH]2)C1` [Compound 30, (1R,3S)-3-(5-{5-[2-(2-formyl-3-hydroxyphenyl)ethyl]-2-methylpyrazole-3-amido}-2H-pyrazol-3-yl)cyclopentyl N-isopropylcarbamate], the pIC50 in test [1] was 6.31; in test [2], 7.75; in test [3], 5.50; in test [4], 5.56.
